# Measurements reported in BindingDB's records for PubMed 10215699 (Gliatech, 1999).
# Values joined by “and” are separate entries in the source; they are usually repeats but may differ in a detail not shown here. Equal values may be shown once.
# Biological target: Histamine H3 receptor (Homo sapiens, UniProt Q9Y5N1)
# Sequence (Q9Y5N1 whole entry): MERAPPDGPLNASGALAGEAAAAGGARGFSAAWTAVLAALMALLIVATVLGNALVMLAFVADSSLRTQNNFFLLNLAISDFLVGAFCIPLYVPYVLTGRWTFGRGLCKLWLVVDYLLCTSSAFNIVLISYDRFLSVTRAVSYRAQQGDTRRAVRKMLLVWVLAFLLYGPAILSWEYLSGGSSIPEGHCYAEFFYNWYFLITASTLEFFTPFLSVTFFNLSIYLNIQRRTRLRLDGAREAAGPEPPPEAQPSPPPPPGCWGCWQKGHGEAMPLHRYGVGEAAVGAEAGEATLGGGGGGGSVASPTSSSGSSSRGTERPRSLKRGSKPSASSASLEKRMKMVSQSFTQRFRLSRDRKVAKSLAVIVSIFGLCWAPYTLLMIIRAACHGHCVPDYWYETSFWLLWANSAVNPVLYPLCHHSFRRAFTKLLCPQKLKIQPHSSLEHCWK
row,Ki [nM],SMILES
1,3.2,C(=CCCC1CCCCC1)CCc1cnc[nH]1 [GT 2228]

# Biological target: Histamine H2 receptor (Homo sapiens, UniProt P25021)
# Sequence (P25021 whole entry): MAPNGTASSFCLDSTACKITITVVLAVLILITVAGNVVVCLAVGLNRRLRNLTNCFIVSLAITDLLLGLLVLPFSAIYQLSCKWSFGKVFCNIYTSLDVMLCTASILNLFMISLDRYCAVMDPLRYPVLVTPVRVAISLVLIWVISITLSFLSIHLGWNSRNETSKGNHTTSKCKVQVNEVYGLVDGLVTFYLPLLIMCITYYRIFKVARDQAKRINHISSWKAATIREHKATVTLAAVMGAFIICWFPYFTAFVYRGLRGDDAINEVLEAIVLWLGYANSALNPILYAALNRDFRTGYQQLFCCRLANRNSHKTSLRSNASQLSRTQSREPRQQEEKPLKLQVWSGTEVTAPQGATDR
row,Ki [nM],SMILES
1,4470,C(=CCCC1CCCCC1)CCc1cnc[nH]1 [GT 2228]

# Biological target: Hrh3 protein (Rattus norvegicus, UniProt Q5PPG3)
# Sequence (Q5PPG3 whole entry): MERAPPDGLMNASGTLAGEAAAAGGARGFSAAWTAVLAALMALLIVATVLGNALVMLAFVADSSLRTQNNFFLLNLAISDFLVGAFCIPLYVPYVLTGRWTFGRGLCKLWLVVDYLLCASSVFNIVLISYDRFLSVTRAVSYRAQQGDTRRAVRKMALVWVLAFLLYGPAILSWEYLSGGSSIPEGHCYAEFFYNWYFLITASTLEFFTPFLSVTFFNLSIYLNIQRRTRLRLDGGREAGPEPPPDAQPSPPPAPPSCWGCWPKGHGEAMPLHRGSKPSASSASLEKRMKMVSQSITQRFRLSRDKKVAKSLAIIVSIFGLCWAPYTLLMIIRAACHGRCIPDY
row,Ki,SMILES
1,75 nM,c1ncc(CCCCCCC2CCCCC2)[nH]1 [GT 2321]
2,0.95 nM,C(#CCCC1CCCC1)CCc1c[nH]cn1 [GT 2286]
3,1030 nM,C(#Cc1c[nH]cn1)CCCC1CCCCC1 [GT 2288]
4,2.9 nM,C(#CCCC1CCCCC1)CCc1c[nH]cn1 [GT 2260]
5,1 nM,N[C@H](C=CCCc1cnc[nH]1)CC1CCCCC1 [GT 2231]
6,4.2 nM and 15.2 nM,C(=CCCC1CCCCC1)CCc1cnc[nH]1 [GT 2228]
7,3.4 nM,C(#CCCc1c[nH]cn1)CCCC1CCCCC1 [GT 2287]

# The remaining lines, values behind:
row,SMILES,Ki
1,C(=CCCc1cnc[nH]1)CCc1ccccc1 [GT 2327],5.5 nM
2,N[C@H](C(=O)NCCc1c[nH]cn1)c1ccccc1 [GT 2146],630 nM
3,CC(C)(C)CCC#CCCc1c[nH]cn1,0.83 nM
4,N[C@@H](CC1CCCCC1)C(=O)NCCc1cnc[nH]1 [GT 2140],31 nM
5,N[C@@H](Cc1ccccc1)C(=O)NCCc1c[nH]cn1 [GT 2130],104 nM
6,N[C@@H](CCc1ccccc1)C(=O)NCCc1c[nH]cn1 [GT 2148],11 nM
7,CN[C@@H](Cc1ccccc1)C(=O)NCCc1c[nH]cn1 [GT 2142],1590 nM
8,O=C(CCCC1CCCCC1)NCCc1cnc[nH]1 [GT 2174],16 nM
9,N[C@H](Cc1ccccc1)C(=O)NCCc1c[nH]cn1 [GT 2136],2810 nM
